According to ChEMBL document CHEMBL1201862, “PubChem BioAssay data set” (2004):
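48-hour exposure; five concentrations; linearly interpolated endpoints. Here, GI50 denotes the concentration required for 50% inhibition of growth.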 The source made the active and inactive calls. Cut-off read from the data, not from the text of the source: active = GI50 up to about 1.1 µM and inactive = higher.

Key:
Experiment in all cases: NCI-60 cell line screen, 48 h
TK-10 = tested on: TK-10
SK-MEL-2 = tested on: SK-MEL-2
NCI-H460 = tested on: NCI-H460
UACC-62 = tested on: UACC-62
UACC-257 = tested on: UACC-257
HCT-116 = tested on: HCT-116
HOP-92 = tested on: HOP-92
SW-620 = tested on: SW-620
SNB-78 = tested on: SNB-78
MOLT-4 = tested on: MOLT-4
A549 = tested on: A549
OVCAR-8 = tested on: OVCAR-8
HCT-15 = tested on: HCT-15
EKVX = tested on: EKVX
OVCAR-3 = tested on: OVCAR-3
CCRF-CEM = tested on: CCRF-CEM
Hs-578T = tested on: Hs-578T
HCC 2998 = tested on: HCC 2998
PC-3 = tested on: PC-3
T47D = tested on: T47D

Cc1ccc(NCCO)cc1
GI50 (TK-10): > 100 µM (inactive) | GI50 (SK-MEL-2): > 100 µM (inactive) | GI50 (NCI-H460): > 100 µM (inactive) | GI50 (UACC-62): > 100 µM (inactive) | GI50 (UACC-257): > 100 µM (inactive) | GI50 (HCT-116): > 100 µM (inactive) | GI50 (HOP-92): 97.1 µM (inactive) | GI50 (SW-620): > 100 µM (inactive) | GI50 (SNB-78): > 100 µM (inactive) | GI50 (MOLT-4): 85.1 µM (inactive) | GI50 (A549): > 100 µM (inactive) | GI50 (OVCAR-8): > 100 µM (inactive) | GI50 (HCT-15): > 100 µM | GI50 (EKVX): > 100 µM (inactive) | GI50 (OVCAR-3): > 100 µM (inactive) | GI50 (CCRF-CEM): > 100 µM (inactive)

O=C1c2c(Br)sc(Br)c2C(=O)C1(O)O
GI50 (TK-10): 72.3 µM (inactive) | GI50 (SK-MEL-2): 29.8 µM (inactive) | GI50 (NCI-H460): > 100 µM (inactive) | GI50 (UACC-62): 76.2 µM (inactive) | GI50 (Hs-578T): > 100 µM (inactive) | GI50 (HCC 2998): > 100 µM (inactive) | GI50 (UACC-257): 19.8 µM (inactive) | GI50 (HCT-116): 19.7 µM (inactive) | GI50 (PC-3): 22.8 µM (inactive) | GI50 (HOP-92): 17.9 µM (inactive) | GI50 (SW-620): 35.6 µM (inactive) | GI50 (MOLT-4): 33.6 µM (inactive) | GI50 (A549): > 100 µM (inactive) | GI50 (OVCAR-8): 35.7 µM (inactive) | GI50 (HCT-15): 27.1 µM | GI50 (EKVX): 53.6 µM (inactive) | GI50 (OVCAR-3): 19.4 µM (inactive) | GI50 (T47D): 21.8 µM (inactive) | GI50 (CCRF-CEM): 27.7 µM (inactive)

CCCCCCCSCC(O)COC(c1ccccc1)(c1ccccc1)c1ccccc1 (stereo not given)
GI50 (TK-10): 87.3 µM (inactive) | GI50 (SK-MEL-2): 18.3 µM (inactive) | GI50 (NCI-H460): 30.1 µM (inactive) | GI50 (UACC-62): 65.8 µM (inactive) | GI50 (Hs-578T): 3.52 µM (inactive) | GI50 (HCC 2998): 19.4 µM (inactive) | GI50 (UACC-257): 34.5 µM (inactive) | GI50 (HCT-116): 40.6 µM (inactive) | GI50 (PC-3): 29.3 µM (inactive) | GI50 (HOP-92): 26.7 µM (inactive) | GI50 (SW-620): 78 µM (inactive) | GI50 (MOLT-4): 28.4 µM (inactive) | GI50 (A549): 26.7 µM (inactive) | GI50 (OVCAR-8): 61.8 µM (inactive) | GI50 (HCT-15): 41.6 µM | GI50 (EKVX): 53 µM (inactive) | GI50 (OVCAR-3): 29.2 µM (inactive) | GI50 (T47D): 32.7 µM (inactive) | GI50 (CCRF-CEM): 29.7 µM (inactive)

COc1ccc(N2C(=O)C3c4[nH]c5ccc(OC)cc5c4C4CCC(C(C)C)CC4C3C2=O)cc1 (stereo not given)
GI50 (TK-10): > 100 µM (inactive) | GI50 (SK-MEL-2): > 59.4 µM (inactive) | GI50 (NCI-H460): 27.5 µM (inactive) | GI50 (UACC-62): > 31.6 µM (inactive) | GI50 (Hs-578T): 12.1 µM (inactive) | GI50 (HCC 2998): 33.7 µM (inactive) | GI50 (UACC-257): > 100 µM (inactive) | GI50 (HCT-116): > 55.3 µM (inactive) | GI50 (PC-3): > 100 µM (inactive) | GI50 (HOP-92): > 54.2 µM (inactive) | GI50 (SW-620): > 75.3 µM (inactive) | GI50 (MOLT-4): 28.8 µM (inactive) | GI50 (A549): > 72.4 µM (inactive) | GI50 (OVCAR-8): > 29.4 µM (inactive) | GI50 (HCT-15): > 100 µM | GI50 (EKVX): > 93.3 µM (inactive) | GI50 (OVCAR-3): > 100 µM (inactive) | GI50 (T47D): > 100 µM (inactive) | GI50 (CCRF-CEM): 7.73 µM (inactive)

Cc1c(C(=O)/C=C/c2ccccc2[N+](=O)[O-])[n+]([O-])c2ccccc2[n+]1[O-]
GI50 (SK-MEL-2): 11.3 µM (inactive) | GI50 (NCI-H460): 4.32 µM (inactive) | GI50 (UACC-257): 7.53 µM (inactive) | GI50 (HCT-116): 3.96 µM (inactive) | GI50 (HOP-92): 13.6 µM (inactive) | GI50 (SW-620): 5.13 µM (inactive) | GI50 (SNB-78): 12.3 µM (inactive) | GI50 (MOLT-4): 5.5 µM (inactive) | GI50 (A549): 12.5 µM (inactive) | GI50 (OVCAR-8): 3.9 µM (inactive) | GI50 (HCT-15): 3.3 µM | GI50 (EKVX): 14.4 µM (inactive) | GI50 (OVCAR-3): 3.76 µM (inactive)

COC(=O)c1cc(Cl)ccc1NC(=O)c1ccc([N+](=O)[O-])cc1
GI50 (TK-10): 16.9 µM (inactive) | GI50 (SK-MEL-2): 49 µM (inactive) | GI50 (NCI-H460): 42.3 µM (inactive) | GI50 (UACC-62): 24.2 µM (inactive) | GI50 (HCC 2998): 29.2 µM (inactive) | GI50 (UACC-257): 39.2 µM (inactive) | GI50 (HCT-116): 4.78 µM (inactive) | GI50 (SW-620): 29.9 µM (inactive) | GI50 (SNB-78): 32.6 µM (inactive) | GI50 (MOLT-4): 35.6 µM (inactive) | GI50 (A549): 19.6 µM (inactive) | GI50 (OVCAR-8): 15.9 µM (inactive) | GI50 (HCT-15): 32.2 µM | GI50 (EKVX): 31.8 µM (inactive) | GI50 (OVCAR-3): 15.6 µM (inactive) | GI50 (CCRF-CEM): 22.8 µM (inactive)

Cc1occc1/C(S)=N\c1ccc(Cl)c(C(=O)OCC(F)(F)F)c1
GI50 (TK-10): 20.2 µM (inactive) | GI50 (SK-MEL-2): 22 µM (inactive) | GI50 (NCI-H460): 22.1 µM (inactive) | GI50 (UACC-62): 16.4 µM (inactive) | GI50 (Hs-578T): 35.6 µM (inactive) | GI50 (HCC 2998): 18.7 µM (inactive) | GI50 (UACC-257): 23.4 µM (inactive) | GI50 (HCT-116): 17.9 µM (inactive) | GI50 (PC-3): 23.7 µM (inactive) | GI50 (HOP-92): 17.4 µM (inactive) | GI50 (SW-620): 23.7 µM (inactive) | GI50 (MOLT-4): 18.2 µM (inactive) | GI50 (A549): 23.1 µM (inactive) | GI50 (OVCAR-8): 16.7 µM (inactive) | GI50 (HCT-15): 19.6 µM | GI50 (EKVX): 25.5 µM (inactive) | GI50 (OVCAR-3): 29.6 µM (inactive) | GI50 (T47D): 26.5 µM (inactive) | GI50 (CCRF-CEM): 17.9 µM (inactive)

CC1=CC(=O)[C@@H](O)[C@]2(C)[C@H]3[C@@]4(O)OC[C@]35[C@H]([C@@H](C)[C@H]4O)[C@@H](O)C(=O)O[C@@H]5C[C@@H]12
GI50 (TK-10): 0.338 µM (active) | GI50 (SK-MEL-2): 0.219 µM (active) | GI50 (NCI-H460): 0.214 µM (active) | GI50 (UACC-62): 0.312 µM (active) | GI50 (Hs-578T): 0.195 µM (active) | GI50 (HCC 2998): 0.227 µM (active) | GI50 (UACC-257): 0.276 µM (active) | GI50 (HCT-116): 0.0428 µM (active) | GI50 (PC-3): 0.293 µM (active) | GI50 (HOP-92): 0.327 µM (active) | GI50 (SW-620): 0.428 µM (active) | GI50 (MOLT-4): 1.55 µM (inactive) | GI50 (A549): 0.789 µM (active) | GI50 (OVCAR-8): 0.279 µM (active) | GI50 (HCT-15): 0.175 µM | GI50 (EKVX): 0.771 µM (active) | GI50 (OVCAR-3): 0.247 µM (active) | GI50 (T47D): 0.225 µM (active) | GI50 (CCRF-CEM): 0.261 µM (active)
